How the values were obtained:
[1] = Genotoxicity in Salmonella typhimurium TA100 assessed as number of revertant by Ames spot test relative to solvent control; type: toxicity; details: salmonella enterica subsp. enterica serovar typhimurium
[2] = Cytotoxicity against human skin fibroblasts assessed as cell viability measured after 72 hrs by MTT assay; type: cell-based, Fibroblast
[3] = tested on: Pseudomonas aeruginosa; experiment: Antibacterial activity against Pseudomonas aeruginosa ATCC 27853 measured after 24 hrs by broth microdilution method; type: functional
[4] = tested on: Staphylococcus ureilyticus; experiment: Antibacterial activity against clinical isolate Staphylococcus ureilyticus 1972 measured after 24 hrs by broth microdilution method; type: functional
[5] = Genotoxicity in Salmonella typhimurium TA1535 assessed as number of revertant by Ames spot test relative to solvent control; type: toxicity; details: salmonella enterica subsp. enterica serovar typhimurium
[6] = tested on: Moraxella; experiment: Antibacterial activity against clinical isolate Moraxella 765 measured after 24 hrs by broth microdilution method; type: functional
[7] = tested on: Pseudomonas aeruginosa; experiment: Antibacterial activity against clinical isolate Pseudomonas aeruginosa 1945 measured after 24 hrs by broth microdilution method; type: functional
[8] = Genotoxicity in Salmonella typhimurium TA1535/pSK1002 assessed as DNA-damage activity by measuring beta-galactosidase activity at 750 ug/ml measured by SOS-chromotest relative to solvent control; type: toxicity; details: salmonella enterica subsp. enterica serovar typhimurium; dose 750 µg/ml
[9] = tested on: Staphylococcus aureus; experiment: Antibacterial activity against clinical isolate methicillin-resistant Staphylococcus aureus 1053 measured after 24 hrs by broth microdilution method; type: functional
[10] = Cytotoxicity against human mesenchymal stem cells assessed as cell viability measured after 72 hrs by MTT assay; type: cell-based
[11] = Genotoxicity in Salmonella typhimurium TA1535/pSK1002 assessed as DNA-damage activity by measuring beta-galactosidase activity at 150 ug/ml measured by SOS-chromotest relative to solvent control; type: toxicity; details: salmonella enterica subsp. enterica serovar typhimurium; dose 150 µg/ml
[12] = Genotoxicity in Salmonella typhimurium TA98 assessed as number of revertant by Ames spot test relative to solvent control; type: toxicity; details: salmonella enterica subsp. enterica serovar typhimurium
[13] = tested on: Escherichia coli; experiment: Antibacterial activity against clinical isolate Escherichia coli 718 measured after 24 hrs by broth microdilution method; type: functional
[14] = Genotoxicity in Salmonella typhimurium TA1535/pSK1002 assessed as DNA-damage activity by measuring beta-galactosidase activity at 75 ug/ml measured by SOS-chromotest relative to solvent control; type: toxicity; details: salmonella enterica subsp. enterica serovar typhimurium; dose 75 µg/ml
[15] = tested on: Micrococcus luteus; experiment: Antibacterial activity against Micrococcus luteus clinical isolate measured after 24 hrs by broth microdilution method; type: functional
[16] = tested on: Staphylococcus intermedius; experiment: Antibacterial activity against clinical isolate methicillin-resistant Staphylococcus intermedius 1061 measured after 24 hrs by broth microdilution method; type: functional
[17] = tested on: Pseudomonas sp.; experiment: Antibacterial activity against clinical isolate Pseudomonas sp. 5 measured after 24 hrs by broth microdilution method; type: functional
[18] = tested on: Staphylococcus aureus; experiment: Antibacterial activity against clinical isolate methicillin-resistant Staphylococcus aureus 1065 measured after 24 hrs by broth microdilution method; type: functional
[19] = tested on: Staphylococcus aureus; experiment: Antibacterial activity against clinical isolate Staphylococcus aureus 25 measured after 24 hrs by broth microdilution method; type: functional
[20] = tested on: Staphylococcus aureus; experiment: Antibacterial activity against clinical isolate methicillin-resistant Staphylococcus aureus 983 measured after 24 hrs by broth microdilution method; type: functional
[21] = tested on: Acinetobacter sp.; experiment: Antibacterial activity against clinical isolate Acinetobacter sp. 3 measured after 24 hrs by broth microdilution method; type: functional
[22] = Cytotoxicity against human HEK293 cells assessed as cell viability measured after 72 hrs by MTT assay; type: cell-based
[23] = tested on: Serratia marcescens; experiment: Antibacterial activity against clinical isolate Serratia marcescens 1966 measured after 24 hrs by broth microdilution method; type: functional
[24] = tested on: Proteus sp.; experiment: Antibacterial activity against clinical isolate Proteus sp. 17 measured after 24 hrs by broth microdilution method; type: functional; details: Proteus sp. (in: enterobacteria)
[25] = Genotoxicity in Salmonella typhimurium TA1537 assessed as number of revertant by Ames spot test relative to solvent control; type: toxicity; details: salmonella enterica subsp. enterica serovar typhimurium
[26] = Genotoxicity in Salmonella typhimurium TA1535/pSK1002 assessed as DNA-damage activity by measuring beta-galactosidase activity at 15 ug/ml measured by SOS-chromotest relative to solvent control; type: toxicity; details: salmonella enterica subsp. enterica serovar typhimurium; dose 15 µg/ml
[27] = tested on: Staphylococcus aureus; experiment: Antibacterial activity against clinical isolate methicillin-resistant Staphylococcus aureus 1131 measured after 24 hrs by broth microdilution method; type: functional
[28] = tested on: Staphylococcus aureus; experiment: Antibacterial activity against clinical isolate methicillin-resistant Staphylococcus aureus 713 measured after 24 hrs by broth microdilution method; type: functional
[29] = tested on: Klebsiella pneumoniae; experiment: Antibacterial activity against clinical isolate Klebsiella pneumoniae 1813 measured after 24 hrs by broth microdilution method; type: functional
[30] = tested on: Enterococcus faecalis; experiment: Antibacterial activity against clinical isolate Enterococcus faecalis 23 measured after 24 hrs by broth microdilution method; type: functional
[31] = tested on: Bacillus subtilis; experiment: Antibacterial activity against Bacillus subtilis 168 measured after 24 hrs by broth microdilution method; type: functional
[32] = tested on: Staphylococcus aureus; experiment: Antibacterial activity against Staphylococcus aureus ATCC 29213 measured after 24 hrs by broth microdilution method; type: functional
[33] = tested on: Enterococcus faecalis; experiment: Antibacterial activity against clinical isolate Enterococcus faecalis 3063 measured after 24 hrs by broth microdilution method; type: functional
[34] = Lipophilicity, logP of the compound; type: physicochemical; details: octanol/water
[35] = tested on: Klebsiella sp.; experiment: Antibacterial activity against clinical isolate Klebsiella sp. 11 measured after 24 hrs by broth microdilution method; type: functional
[36] = Genotoxicity in Salmonella typhimurium TA1535/pSK1002 assessed as DNA-damage activity by measuring beta-galactosidase activity at 7.5 ug/ml measured by SOS-chromotest relative to solvent control; type: toxicity; details: salmonella enterica subsp. enterica serovar typhimurium; dose 7.5 µg/ml
[37] = tested on: Escherichia coli; experiment: Antibacterial activity against Escherichia coli MG 1655 measured after 24 hrs by broth microdilution method; type: functional
[38] = tested on: Staphylococcus intermedius; experiment: Antibacterial activity against clinical isolate methicillin-resistant Staphylococcus intermedius 1143 measured after 24 hrs by broth microdilution method; type: functional

Structure (SMILES) | Ratio [1] | CC50 at 72 h [2] [µg/mL] | MIC [3] [µg/mL] | MIC [4] [µg/mL] | Ratio [5] | MIC [6] [µg/mL] | MIC [7] [µg/mL] | Ratio [8] | MIC [9] [µg/mL] | CC50 at 72 h [10] [µg/mL] | Ratio [11] | Ratio [12] | MIC [13] [µg/mL] | Ratio [14] | MIC [15] [µg/mL] | Ratio [25] | MIC [31] [µg/mL] | MIC [32] [µg/mL] | logP [34] | MIC [37] [µg/mL] | further results
CCCCCCCCCCCCCC(=O)OCC[N+](C)(C)Cc1nc(C)c2c(c1CO)COC(C)(C)O2.[Cl-] | 2.1 | 2.24 | > 64 | > 64 | 0.4 | 64 | 64 | 0.3 | 2 | 1.02 | 0.9 | 2.5 | 32 | 1.2 | 1 | 0.05 | 0.5 | 1 | 1.46 | 32 | MIC [16]: 4 µg/mL; MIC [17]: 64 µg/mL; MIC [18]: 4 µg/mL; MIC [19]: 2 µg/mL; MIC [20]: 32 µg/mL; MIC [21]: 64 µg/mL; CC50 at 72 h [22]: 0.88 µg/mL; MIC [23]: > 64 µg/mL; MIC [24]: > 64 µg/mL; Ratio [26]: 1.6; MIC [27]: 4 µg/mL; MIC [28]: 2 µg/mL; MIC [29]: 2 µg/mL; MIC [30]: 2 µg/mL; MIC [33]: 2 µg/mL; MIC [35]: 64 µg/mL; Ratio [36]: 1.8; MIC [38]: 4 µg/mL
CCCCCCCCCCCCCC(=O)NCCC[N+](C)(C)Cc1cnc(C)c2c1COC(C)(C)O2.[Cl-] | 2.5 | 3.14 | 8 |  | 0.4 |  |  | 1 |  | 2.21 | 0.5 | 2.6 |  | 0.7 | 1 | 0.03 | 2 | 0.5 | 1.47 | 8 | CC50 at 72 h [22]: 1.61 µg/mL; Ratio [26]: 1.5; Ratio [36]: 1.5
CCCCCCCCCCCCCC(=O)OCC[N+](C)(C)Cc1cnc(C)c2c1COC(C)(C)O2.[Cl-] | 1.4 | 1.94 | 1 | > 64 | 0.9 | 64 | 64 | 0.4 | 8 | 1.08 | 0.6 | 4.6 | 32 | 1.2 | 0.5 | 0.02 | 1 | 0.5 | 2.14 | 8 | MIC [16]: 8 µg/mL; MIC [17]: 64 µg/mL; MIC [18]: 8 µg/mL; MIC [19]: 8 µg/mL; MIC [20]: 64 µg/mL; MIC [21]: 64 µg/mL; CC50 at 72 h [22]: 0.17 µg/mL; MIC [23]: 64 µg/mL; MIC [24]: > 64 µg/mL; Ratio [26]: 1.6; MIC [27]: 16 µg/mL; MIC [28]: 8 µg/mL; MIC [29]: 64 µg/mL; MIC [30]: 4 µg/mL; MIC [33]: 4 µg/mL; MIC [35]: 64 µg/mL; Ratio [36]: 1.6; MIC [38]: 8 µg/mL
COS(C)(=O)=O [METHANESULFONIC ACID METHYL ESTER] | 2.7 |  |  |  | 30 |  |  |  |  |  |  |  |  |  |  |  |  |  |  |  | 
CCCCCCCCCCCCCCCCCC(=O)NCCC[N+](C)(C)Cc1cnc(C)c2c1COC(C)(C)O2.[Cl-] |  |  | 8 | > 64 |  | > 64 | > 64 |  | 8 |  |  |  | > 64 |  | 4 |  | 8 | 4 | 3.25 | > 64 | MIC [16]: 8 µg/mL; MIC [17]: 64 µg/mL; MIC [18]: 8 µg/mL; MIC [19]: 8 µg/mL; MIC [20]: 64 µg/mL; MIC [21]: 64 µg/mL; MIC [23]: > 64 µg/mL; MIC [24]: > 64 µg/mL; MIC [27]: 16 µg/mL; MIC [28]: 16 µg/mL; MIC [29]: > 64 µg/mL; MIC [30]: 4 µg/mL; MIC [33]: 4 µg/mL; MIC [35]: 64 µg/mL; MIC [38]: 16 µg/mL
CCCCCC(=O)NCCC[N+](C)(C)Cc1cnc(C)c2c1COC(C)(C)O2.[Cl-] |  |  | > 64 |  |  |  |  |  |  |  |  |  |  |  | > 64 |  | > 64 | > 64 | -2.09 | > 64 | 
CCCCCCCCCCCC(=O)OCCC[N+](C)(C)Cc1cnc(C)c2c1COC(C)(C)O2.[Cl-] |  |  | 32 |  |  |  |  |  |  |  |  |  |  |  | 2 |  | 1 | 2 | 1.31 | 8 | 
Nc1ccc([N+](=O)[O-])cc1N |  |  |  |  |  |  |  |  |  |  |  | 4.2 |  |  |  | 3.7 |  |  |  |  | 
CCCCCCCCCCCCCCCCCC(=O)NCC[N+](C)(C)Cc1cnc(C)c2c1COC(C)(C)O2.[Cl-] |  |  | 8 |  |  |  |  |  |  |  |  |  |  |  | 2 |  | 8 | 4 | 3.19 | > 64 | 
CCCCCCCCCCCCCCCC(=O)NCC[N+](C)(C)Cc1cnc(C)c2c1COC(C)(C)O2.[Cl-] |  |  | 2 |  |  |  |  |  |  |  |  |  |  |  | 1 |  | 4 | 1 | 2.93 | 32 | 

From ChEMBL document CHEMBL4819019, “Design, synthesis, antibacterial activity and toxicity of novel quaternary ammonium compounds based on pyridoxine and fatty acids” (Eur J Med Chem, 2021)
